The results in this text go back to patent US4981950A, “Vasoconstrictor peptide” (Takeda Chemical Ind., Ltd., priority 1987, dated 1991).

The test system of one assay is guinea pig right atrium. The assay can be described thus: Assay of cardiotonic action (tension and heart rate of suspended right atrium specimens). To be noted: assay (2); purified compound I from porcine aortic endothelial cell culture supernatant. On the procedure:
Instead of the porcine right coronary artery spiral specimens used in the assay described in the above item (1), guinea pig right atrium suspended specimens are used, and the tension and the heart rate per minute are measured according to the same procedure as described in (1). (3) ED50
(§1) The activity of the compound I obtained in 2 (iii) above was assayed by the method of Reference Example (1) and (2).

The test system of assay [1] is porcine right coronary artery. The assay can be described thus: Assay of vascular smooth muscle constrictor activity (isometric tension of intima-denuded artery spiral specimens). Conditions: assay (1); purified compound I from porcine aortic endothelial cell culture supernatant; Krebs-Ringer solution, 37° C. On the procedure: Porcine right coronary artery spiral specimens (2×20 mm) with the intima denuded by rubbing with a small swab are suspended in 3 ml of Krebs-Ringer solution maintained at 37° C. and saturated with the mixed gas containing 5% carbon dioxide and 95% oxygen by volume. After setting the basal tension to 1 g, the isometric tension is measured with tension transducers.
as §1

As to `CC[C@H](C)[C@H](NC(=O)[C@H](CC(=O)O)NC(=O)[C@H](CC(C)C)NC(=O)[C@H](Cc1c[nH]cn1)NC(=O)[C@@H]1CSSC[C@H](N)C(=O)N[C@@H](CO)C(=O)N[C@H]2CSSC[C@H](NC(=O)[C@H](CCC(=O)O)NC(=O)[C@H](CCCCN)NC(=O)[C@H](CC(=O)O)NC(=O)[C@H](CCSC)NC(=O)[C@H](CC(C)C)NC(=O)[C@H](CO)NC(=O)[C@H](CO)NC2=O)C(=O)N[C@@H](C(C)C)C(=O)N[C@@H](Cc2ccc(O)cc2)C(=O)N[C@@H](Cc2ccccc2)C(=O)N1)C(=O)N[C@H](C(=O)N[C@@H](Cc1c[nH]c2ccccc12)C(=O)O)[C@@H](C)CC` [compound I], in the assay on guinea pig right atrium, the “ED50 for cardiotonic action to guinea pig right atrium” value was found to be 1 nM. Besides, the “ED50 for smooth muscle constrictor activity to porcine coronary artery” value in assay [1] is reported as 4 to 5×10^-10 mole/l.
